This note sets out measurements from patent US20230321094A1, “COMBINATION THERAPIES WITH OLIG2 INHIBITORS” (Curtana Pharmaceuticals, Inc., priority 2020, published 2023).

This data set deals with NX18 cells. Description: Glioblastoma neurosphere cell viability with the test compound and an mTOR inhibitor, Cell TiterGlo. In kind it is cell-based. To be noted: NX18 neurospheres, 72 hours, normalized to DMSO vehicle; for cytotoxicity at 0.01 µM: mTOR inhibitor alone, final concentration 10 nM, read-out: percent inhibition of cell viability, mTOR inhibitor alone; for percent inhibition of cell viability, Combined: named mTOR inhibitor (10 nM) combined with test compound @ 3 μM. The protocol: After another 72 hours, cell viability was determined using the Cell TiterGlo kit (#G7570, Promega, Madison. WI) following the manufacturer's instructions on a Tecan M200 Pro Plate Reader (Tecan, Mannedorf, CH). Percent viable cells were normalized against vehicle control (DMSO set as 100%).
For orientation: In ATP-based viability assays light output follows the ATP content of the culture.

As for `CO[C@H]1C[C@@H]2CC[C@@H](C)[C@@](O)(O2)C(=O)C(=O)N2CCCC[C@H]2C(=O)O[C@H]([C@H](C)C[C@@H]2CC[C@@H](O)[C@H](OC)C2)CC(=O)[C@H](C)/C=C(\C)[C@@H](O)[C@@H](OC)C(=O)[C@H](C)C[C@H](C)/C=C/C=C/C=C/1C` [Rapamycin], the cytotoxicity at 0.01 µM was 41% and the “percent inhibition of cell viability, Combined” value is listed as 61%.

With `Cc1cc(NCCCN(C)C)nc(NC(=O)Nc2ccc(Cl)c(Cl)c2)n1` [Test compound], the cytotoxicity at 3 µM (test compound alone at 3 μM, read-out: percent inhibition of cell viability, Test compound @ 3 μM) turned out to be 30%.

Regarding `CO[C@H]1C[C@@H]2CC[C@@H](C)[C@@](O)(O2)C(=O)C(=O)N2CCCC[C@H]2C(=O)O[C@H]([C@H](C)C[C@@H]2CC[C@@H](OCCO)[C@H](OC)C2)CC(=O)[C@H](C)/C=C(\C)[C@@H](O)[C@@H](OC)C(=O)[C@H](C)C[C@H](C)/C=C/C=C/C=C/1C` [Everolimus], the cytotoxicity at 0.01 µM is 45% and the “percent inhibition of cell viability, Combined” value is reported as 60%.
